Values of other authors as cited in patent publication US9308182B2 (TEVA PHARMACEUTICAL INDUSTRIES, LTD., priority 2012, dated 2016).
Read-outs that look alike come from different tables or passages of the source.

Experiments:
MAO = conditions: metabolite of rasagiline; cited from earlier work
[1] = cited from earlier work

## NC1CCc2ccccc21 (stereo not shown) [aminoindan]
MAO
  MAO inhibition: does not inhibit MAO

## NCCc1ccc(O)cc1 [Tyramine, tyramine]
[1]; 1 mg injected into the portal vein
  increase in blood pressure: 18 mmHg
[1]; 1 mg injected systematically
  increase in blood pressure: 59 mmHg

## O=C(CCNNC(=O)c1ccncc1)NCc1ccccc1 [nialamide]
[1]; non specific MAO inhibitor, all the treatment groups
  effect on blood pressure response to tyramine: severe increase in blood pressure
